# From article PMC11581978, “Paenilamicins are context-specific translocation inhibitors of protein synthesis” (Nature Chemical Biology, 2024)
# Columns and labels:
# [1] = test system: Escherichia coli in vitro translation; conditions: well-known translation inhibitors; read-out: IC50; cited from earlier work
# From the text: The accordance of structural features of paenilamicins with the translation inhibitor edeine (Extended Data Fig. 1c) led to the hypothesis that paenilamicins may also exert their antimicrobial activity by binding to the ribosome and inhibiting protein synthesis. […] The best understood context-specific translation inhibitors are those that target the large subunit, where their inhibitory action is influenced by the sequence of the nascent polypeptide chain being synthesized, for example, macrolides and ketolides[30]–[32] ...
# [2] = test system: EF-G-dependent translocation on the ribosome; assay: Translocation assay (toeprinting, MFKAFK template); format: biochemical; conditions: EF-G present; tRNAfMet in P-site, N-AcPhe-tRNAPhe in A-site; in duplicate
# Method: Translocation assays were performed as previously described[22] using the MFKAFK template[45] (Supplementary Table 2). Reactions were prepared by incubating tight-coupled ribosomes (0.7 µM) with mRNA (0.5 µM) and tRNAi^Met (1 µM) for 20 min at 37 °C in the Pure System Buffer (5 mM potassium phosphate (pH 7.3), 9 mM Mg(OAc)2, 95 mM potassium glutamate, 5 mM NH4Cl, 0.5 mM CaCl2, 1 mM spermidine, 8 mM putrescine and 1 mM dithiothreitol) and for additional 10 min at 37 °C with 2 μM of N-acetyl-Phe-tRNA^Phe. At the time of N-acetyl-Phe-tRNA^Phe addition, the reactions were supplemented with PamB2 or negamycin as specified. The translocation reaction was initiated by addition of 1 µl of EF-G–GTP mixture (1.2 µM and 3.2 mM). After 5 min of incubation at 30 °C, 2 µl of reverse transcriptase and/or dNTPs mixture was added. The reactions were stopped after another 5 min at 30 °C by addition of 200 µl of the stop buffer and subsequent phenol extraction. The obtained complementary DNA was precipitated in ethanol for subsequent gel electrophoresis.
# [3] = test system: EF-G-dependent translocation on the ribosome; set-up: method as in PMID 25306922; conditions: cited from earlier work
# [4] = test system: ribosomes translating ErmBL mRNA; assay: Toeprinting on ErmBL mRNA templates (Figs. 4a and 5c); format: biochemical, E. coli; conditions: for ribosome stalling on wildtype ErmBL mRNA: mupirocin present, in duplicate
# Method: Toeprinting reactions for Figs. 4a and 5c were performed as described previously. Briefly, reactions were performed with 5 μl of PURExpress in vitro protein synthesis system. The reactions contained 0.1 pmol of the respective DNA template (Supplementary Table 2) and were supplemented with retapamulin, erythromycin, mupirocin or PamB2 as specified. The transcription–translation reactions were incubated 20 min at 37 °C. Subsequently, reverse transcription was performed for 10 min at 37 °C using AMV RT and the radiolabeled NV*1-primer. Reactions were stopped by the addition of 1 µl of 10 M NaOH and then neutralized with 0.8 µl of concentrated HCl. Subsequently, 200 µl of the stop buffer (0.3 M sodium acetate (pH 5.5), 5 mM EDTA and 0.5% SDS) was added and phenol extraction was performed. The obtained complementary DNA was precipitated in ethanol for subsequent gel electrophoresis.
# [5] = test system: E. coli ribosomes translating MLIFstop-mRNA; assay: Toeprinting assay on MLIFstop-mRNA; format: biochemical; conditions: 100 µM, positive control, toeprinting in duplicate
# From the text: To investigate how paenilamicins inhibit translation, we generated PamB2-stalled ribosome complexes (PamB2-SRC) for single-particle cryo-EM analysis. Rather than forming complexes on vacant ribosomes, or with predefined functional states, we instead aimed to use more physiological complexes where translating ribosomes become stalled by PamB2. To achieve this, we performed in vitro translation reactions with E. coli ribosomes using the Met-Leu-Ile-Phe-stop-mRNA (MLIFstop-mRNA), a model template that we had previously used to successfully determine structures of drosocin-stalled ribosomal complexes. Toeprinting was used to monitor the position of ribosomes on the MLIFstop-mRNA in the presence of increasing concentrations of synthetic PamB2 (Extended Data Fig. 2). […] (Extended Data Fig. 2). […] (Extended Data Fig. 2).
# Toeprinting reactions for Fig. 4b and Extended Data Fig. 2 were performed as described previously. Briefly, reactions were performed with 6 μl of PURExpress in vitro protein synthesis system (New England Biolabs). The reactions were carried out with different primers and templates (Supplementary Tables 2 and 3). The reactions contained 340 ng of the respective mRNA template and were supplemented with the different compounds as specified. The translation reactions were incubated for 30 min at 37 °C. […]
molecule,measurement,setting,value
"O=C(N[C@H](CO)[C@H](O)c1ccc([N+](=O)[O-])cc1)C(Cl)Cl [chloramphenicol, reference compound]",IC50,[1],1000 nM
"CN(CC(=O)O)NC(=O)C[C@H](N)C[C@@H](O)CN [negamycin, reference compound]",EF-G dependent translocation (toeprint shift),[2],little to no shift in the toeprint band
same,interference with translocation,[3],interfere with translocation
"CC[C@H]1OC(=O)[C@H](C)[C@@H](O[C@H]2C[C@@](C)(OC)[C@@H](O)[C@H](C)O2)[C@H](C)[C@@H](O[C@@H]2O[C@H](C)C[C@H](N(C)C)[C@H]2O)[C@](C)(O)C[C@@H](C)C(=O)[C@H](C)[C@@H](O)[C@]1(C)O [erythromycin, reference compound]",ribosome stalling on wildtype ErmBL mRNA,[4]; 50 µM,accumulation of ribosomes stalled with the tenth CAU codon (encoding Asp) in the P-site
same,IC50,[1],750 nM
"CN(C)[C@@H]1C(O)=C(C(N)=O)C(=O)[C@@]2(O)C(O)=C3C(=O)c4c(O)cccc4[C@@](C)(O)[C@H]3C[C@@H]12 [tetracycline, reference compound]",IC50,[1],10000 nM
"C/C(=C\C(=O)OCCCCCCCCC(=O)O)C[C@@H]1OC[C@H](C[C@@H]2O[C@H]2[C@@H](C)[C@H](C)O)[C@@H](O)[C@H]1O [mupirocin, reference compound]","ribosome trapping at twelfth codon (AUC, Ile) of ErmBL mRNA","[4]; Ile-tRNA synthetase inhibitor added to all reactions, concentration not given",become trapped
"C=C[C@]1(C)C[C@@H](OC(=O)CS[C@@H]2C[C@H]3CC[C@@H](C2)N3C)[C@]2(C)[C@H](C)CC[C@]3(CCC(=O)[C@H]32)[C@@H](C)[C@@H]1O [retapamulin, reference compound]",ribosome stalling on wildtype ErmBL mRNA,[4]; 50 or 100 µM,traps ribosomes on the AUG start codon
thiostrepton [reference compound],ribosome stalling on MLIFstop-mRNA,[5],a single strong band is observed that corresponds to ribosomes trapped on the AUG start codon
